Target: (recombinant) catalytic domain of human Bub1 (amino acids 704-1085) (Homo sapiens (Human), UniProt O43683)
Assay: Bub1 kinase assay (TR-FRET)
Assay type: biochemical
Conditions: ATP 10 μM final, peptide substrate 1 μM final, 60 min at 22° C., read-out: Biological Assay: Bub1 kinase assay median IC50
Outline: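 Compounds were serially diluted 1:3.4 from 2 mM DMSO stocks and incubated with the enzyme reaction for 60 min at 22° C. The reaction was stopped with EDTA, and biotinylated peptide phosphorylation was read by TR-FRET using Eu anti-mouse IgG, anti-phosphoserine antibody and streptavidin-XL665. IC50 was fitted by 4-parameter logistic to inhibition normalized to no-inhibitor and no-enzyme controls.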

(recombinant) catalytic domain of human Bub1 (amino acids 704-1085), sequence (O43683 704-1085): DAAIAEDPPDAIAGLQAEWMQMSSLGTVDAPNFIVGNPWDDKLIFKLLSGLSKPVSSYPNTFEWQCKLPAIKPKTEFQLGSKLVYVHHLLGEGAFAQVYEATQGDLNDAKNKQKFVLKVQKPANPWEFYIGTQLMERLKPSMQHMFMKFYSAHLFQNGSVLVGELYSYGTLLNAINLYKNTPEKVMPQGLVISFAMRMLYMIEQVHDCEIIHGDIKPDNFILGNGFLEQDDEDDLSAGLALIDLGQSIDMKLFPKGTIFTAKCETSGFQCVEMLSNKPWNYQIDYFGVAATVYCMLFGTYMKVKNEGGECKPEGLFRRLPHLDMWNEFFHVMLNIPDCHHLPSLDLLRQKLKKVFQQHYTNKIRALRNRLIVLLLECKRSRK

SMILES	IC50 [nM]
CC(C)(C)C(=O)Nc1cc(-c2[nH]c3c(c2Nc2ccccc2)C(=O)CCC3)ccn1 [Example 227, 2,2-dimethyl-N-{4-[4-oxo-3-(phenylamino)-4,5,6,7-tetrahydro-1H-indol-2-yl]pyridin-2-yl}propanamide]	260
CC1(C)CC(=O)c2c([nH]c(-c3ccncc3)c2Nc2ccc(S(N)(=O)=O)cc2)C1 [Example 432, 4-{[6,6-dimethyl-4-oxo-2-(pyridin-4-yl)-4,5,6,7-tetrahydro-1H-indol-3-yl]amino}benzenesulfonamide]	2360
CC1(C)CC(=O)c2c([nH]c(-c3ccncc3)c2Nc2cccnc2)C1 [Example 63, 6,6-dimethyl-2-(pyridin-4-yl)-3-(pyridin-3-ylamino)-1,5,6,7-tetrahydro-4H-indol-4-one]	196
Cc1cnccc1-c1[nH]c2c(c1Nc1ccccc1)C(=O)CC(C)(C)C2 [Example 131, 6,6-dimethyl-2-(3-methylpyridin-4-yl)-3-(phenylamino)-1,5,6,7-tetrahydro-4H-indol-4-one]	51.8
COc1cccc(Nc2c(-c3ccncc3)[nH]c3c2C(=O)CC(C)(C)C3)c1OC [Example 56, 3-[(2,3-dimethoxyphenyl)amino]-6,6-dimethyl-2-(pyridin-4-yl)-1,5,6,7-tetrahydro-4H-indol-4-one]	654
CC1(C)CC(=O)c2c([nH]c(-c3ccncc3)c2Nc2ccc3ccccc3c2)C1 [Example 158, 6,6-dimethyl-3-(naphthalen-2-ylamino)-2-(pyridin-4-yl)-1,5,6,7-tetrahydro-4H-indol-4-one]	95.6
CC1(C)CC(=O)c2c([nH]c(-c3ccncc3)c2Nc2ccc3[nH]ncc3c2)C1 [Example 100, 3-(1H-indazol-5-ylamino)-6,6-dimethyl-2-(pyridin-4-yl)-1,5,6,7-tetrahydro-4H-indol-4-one]	95.2
CC1(C)CC(=O)c2c([nH]c(-c3ccncc3C(F)(F)F)c2Nc2ccccc2)C1 [Example 438, 6,6-dimethyl-3-(phenylamino)-2-[3-(trifluoromethyl)pyridin-4-yl]-1,5,6,7-tetrahydro-4H-indol-4-one]	345
CC1(C)CC(=O)c2c([nH]c(-c3ccnc(NCCCc4ccccc4)c3)c2Nc2ccccc2)C1 [Example 497, 6,6-dimethyl-3-(phenylamino)-2-{2-[(3-phenylpropyl)amino]pyridin-4-yl}-1,5,6,7-tetrahydro-4H-indol-4-one]	1440
O=C1CCCc2[nH]c(-c3ccnc(Nc4cccc(F)c4)c3)c(Nc3ccccc3)c21 [Example 375, 2-{2-[(3-fluorophenyl)amino]pyridin-4-yl}-3-(phenylamino)-1,5,6,7-tetrahydro-4H-indol-4-one]	330
CC1(C)CC(=O)c2c(Nc3ccccc3)c(-c3ccncc3)n(CCO)c2C1 [Example 184, 1-(2-hydroxyethyl)-6,6-dimethyl-3-(phenylamino)-2-(pyridin-4-yl)-1,5,6,7-tetrahydro-4H-indol-4-one]	200
CN(CC(=O)Nc1cc(-c2[nH]c3c(c2Nc2ccccc2)C(=O)CCC3)ccn1)C(=O)OC(C)(C)C [Example 297, tert-butyl methyl[2-oxo-2-({4-[4-oxo-3-(phenylamino)-4,5,6,7-tetrahydro-1H-indol-2-yl]pyridin-2-yl}amino)ethyl]carbamate]	271
CC(C)(C)OC(=O)N1CC(CNc2cc(-c3[nH]c4c(c3Nc3ccccc3)C(=O)CCC4)ccn2)C1 [Example 373, tert-butyl 3-[({4-[4-oxo-3-(phenylamino)-4,5,6,7-tetrahydro-1H-indol-2-yl]pyridin-2-yl}amino)methyl]azetidine-1-carboxylate]	694
CN(CCC(=O)Nc1cc(-c2[nH]c3c(c2Nc2ccccc2)C(=O)CCC3)ccn1)C(=O)OC(C)(C)C [Example 299, tert-butyl methyl[3-oxo-3-({4-[4-oxo-3-(phenylamino)-4,5,6,7-tetrahydro-1H-indol-2-yl]pyridin-2-yl}amino)propyl]carbamate]	74.3
CC1(C)CC(=O)c2c([nH]c(-c3ccncc3)c2Nc2cccc(OC(F)F)c2)C1 [Example 117, 3-{[3-(difluoromethoxy)phenyl]amino}-6,6-dimethyl-2-(pyridin-4-yl)-1,5,6.7-tetrahydro-4H-indol-4-one]	175
CC1(C)CC(=O)c2c([nH]c(-c3c(F)cncc3F)c2Nc2ccccc2)C1 [Example 135, 2-(3,5-difluoropyridin-4-yl)-6,6-dimethyl-3-(phenylamino)-1,5,6,7-tetrahydro-4H-indol-4-one]	188
CCNC(=O)c1cccc(Nc2c(-c3ccncc3)[nH]c3c2C(=O)CC(C)(C)C3)c1 [Example 144, 3-{[6,6-dimethyl-4-oxo-2-(pyridin-4-yl)-4,5,6,7-tetrahydro-1H-indol-3-yl]amino}-N-ethylbenzamide]	1720

These reach a lower IC50. Values come first.

IC50 [nM]	SMILES
8.04	CC1(C)CC(=O)c2c([nH]c(-c3ccnc(NC(=O)COCc4ccccc4)c3)c2Nc2ccccc2)C1 [Example 476, 2-(benzyloxy)-N-{4-[6,6-dimethyl-4-oxo-3-(phenylamino)-4,5,6,7-tetrahydro-1H-indol-2-yl]pyridin-2-yl}acetamide]
26.6	CC1(C)CC(=O)c2c([nH]c(-c3ccncc3)c2Nc2cccc(-c3ccsc3)c2)C1 [Example 418, 6,6-dimethyl-2-(pyridin-4-yl)-3-{[3-(thiophen-3-yl)phenyl]amino}-1,5,6,7-tetrahydro-4H-indol-4-one]
6.39	O=C1CC2(CC2)Cc2[nH]c(-c3ccncc3F)c(Nc3ccccc3)c21 [Example 208, 2′-(3-fluoropyridin-4-yl)-3′-(phenylamino)-1′,7′-dihydrospiro[cyclopropane-1,6′-indol]-4′(5′H)-one]
5.09	COc1ccc(Cn2cc(C(=O)Nc3cc(-c4[nH]c5c(c4Nc4ccccc4)C(=O)CC(C)(C)C5)ccn3)cn2)cc1 [Example 479, N-{4-[6,6-dimethyl-4-oxo-3-(phenylamino)-4,5,6,7-tetrahydro-1H-indol-2-yl]pyridin-2-yl}-1-(4-methoxybenzyl)-1H-pyrazole-4-carboxamide]
11.7	CCOc1cnccc1-c1[nH]c2c(c1Nc1ccccc1)C(=O)CC(C)(C)C2 [Example 404, 2-(3-ethoxypyridin-4-yl)-6,6-dimethyl-3-(phenylamino)-1,5,6,7-tetrahydro-4H-indol-4-one]
8.5	O=C1CC2(CC2)Cc2[nH]c(-c3ccncc3)c(Nc3ccccc3)c21 [Example 37, 3′-(phenylamino)-2′-(pyridin-4-yl)-1′,7′-dihydrospiro[cyclopropane-1,6′-indol]-4′(5′H)-one]
17.4	CCC(=O)Nc1cc(-c2[nH]c3c(c2Nc2ccccc2)C(=O)CC(C)(C)C3)ccn1 [Example 35, N-{4-[6,6-dimethyl-4-oxo-3-(phenylamino)-4,5,6,7-tetrahydro-1H-indol-2-yl]pyridin-2-yl}propanamide]
26.4	CC(=O)Nc1cc(-c2[nH]c3c(c2Nc2ccccc2)C(=O)CC(C)(C)C3)ccn1 [Example 36, N-{4-[6,6-dimethyl-4-oxo-3-(phenylamino)-4,5,6,7-tetrahydro-1H-indol-2-yl]pyridin-2-yl}acetamide]
27.2	CC1(C)CC(=O)c2c([nH]c(-c3ccncc3)c2Nc2cccc([N+](=O)[O-])c2)C1 [Example 16, 6,6-dimethyl-3-[(3-nitrophenyl)amino]-2-(pyridin-4-yl)-1,5,6,7-tetrahydro-4H-indol-4-one]
